Laboratory results as given in ChEMBL document CHEMBL6182930, “Discovery of TBK1Molecular Glue Degraders as a Potential Strategy for the Treatment of Autosomal Dominant Polycystic Kidney Disease (ADPKD)” (J Med Chem, 2025).
Active and inactive are the calls of the source. The calls are words filed in the database; no cut-off is given here.

Columns and labels:
Mus musculus [1] = assay: Anti-inflammatory activity in PKD1 knockout ADPKD (Pkd1 flox/flox; Ksp-Cre) C57BL/6 mouse model assessed as decrease in IL-1beta level in kidney at 5 mg/kg, SC administered from postnatal day 6 and measured on postnatal day 12 by RT-qPCR analysis; assay type: functional, organism-based; conditions: time 7.0 day
Mus musculus [2] = assay: Anti-inflammatory activity in PKD1 knockout ADPKD (Pkd1 flox/flox; Ksp-Cre) C57BL/6 mouse model assessed as decrease in IL-6 level in kidney at 5 mg/kg, SC administered from postnatal day 6 and measured on postnatal day 12 by RT-qPCR analysis; assay type: functional, organism-based; conditions: time 7.0 day
[3] = molecular target: T1, E3 ubiquitin-protein ligase RNF126/Serine/threonine-protein kinase TBK1 (Homo sapiens, UniProt Q9UHD2+Q9BV68); assay: Molecular glue activity at RNF126/TBK1 in human A549 cells assessed as induction of TBK1 degradation at 1 uM by Western blot analysis; assay type: cell-based; conditions: time 2-24 hrs
Target sequence in this assay (Q9BV68 2-311 partner limits assumed): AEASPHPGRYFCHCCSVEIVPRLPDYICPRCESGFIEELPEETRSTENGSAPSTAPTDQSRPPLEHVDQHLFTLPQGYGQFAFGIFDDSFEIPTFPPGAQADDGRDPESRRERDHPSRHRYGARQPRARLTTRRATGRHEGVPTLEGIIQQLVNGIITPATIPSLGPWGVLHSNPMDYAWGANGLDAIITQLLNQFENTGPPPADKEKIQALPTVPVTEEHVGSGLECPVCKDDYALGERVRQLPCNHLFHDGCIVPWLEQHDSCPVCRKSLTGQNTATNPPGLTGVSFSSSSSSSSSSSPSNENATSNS
Target sequence in this assay (Q9UHD2 whole entry): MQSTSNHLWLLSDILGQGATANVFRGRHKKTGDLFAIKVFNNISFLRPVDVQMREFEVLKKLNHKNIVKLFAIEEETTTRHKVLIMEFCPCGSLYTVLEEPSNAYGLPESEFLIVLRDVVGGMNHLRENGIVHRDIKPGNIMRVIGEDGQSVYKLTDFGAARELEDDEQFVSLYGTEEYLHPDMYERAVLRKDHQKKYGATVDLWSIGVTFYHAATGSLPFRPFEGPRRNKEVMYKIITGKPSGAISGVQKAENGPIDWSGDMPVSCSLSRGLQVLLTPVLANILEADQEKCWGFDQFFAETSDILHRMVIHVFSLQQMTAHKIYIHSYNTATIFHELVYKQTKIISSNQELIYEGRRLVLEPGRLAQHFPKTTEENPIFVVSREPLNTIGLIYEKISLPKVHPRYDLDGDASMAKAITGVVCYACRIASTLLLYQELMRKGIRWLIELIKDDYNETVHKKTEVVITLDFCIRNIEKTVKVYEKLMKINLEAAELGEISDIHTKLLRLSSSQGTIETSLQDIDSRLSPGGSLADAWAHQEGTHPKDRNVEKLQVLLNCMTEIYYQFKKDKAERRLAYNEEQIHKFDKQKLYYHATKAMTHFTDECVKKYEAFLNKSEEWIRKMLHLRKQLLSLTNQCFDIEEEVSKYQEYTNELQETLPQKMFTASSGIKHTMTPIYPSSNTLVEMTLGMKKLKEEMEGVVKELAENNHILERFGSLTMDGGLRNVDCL

Mus musculus [4] = assay: (§1) In vivo molecular glue activity at RNF126/TBK1 in PKD1 knockout ADPKD (Pkd1 flox/flox; Ksp-Cre) C57BL/6 mouse model assessed as decrease in TBK1 level in kidney at 5 mg/kg, SC administered from postnatal day 6 and measured on postnatal day 12 by Western blot analysis; assay type: functional, organism-based; conditions: time 7.0 day
[5] = molecular target: T1, E3 ubiquitin-protein ligase RNF126/Serine/threonine-protein kinase TBK1; assay: Molecular glue activity at RNF126/TBK1 in human A549 cells assessed as induction of TBK1 degradation at 1 uM incubated for 16 hrs by Western blot analysis; assay type: cell-based
Target sequence in this assay (Q9BV68 2-311 partner limits assumed): as the sequence (Q9BV68 2-311 partner limits assumed) above
Target sequence in this assay (Q9UHD2 whole entry): as the sequence (Q9UHD2 whole entry) above

Mus musculus [6] = assay: Inhibition of renal cystogenesis in PKD1 knockout ADPKD (Pkd1 flox/flox; Ksp-Cre) C57BL/6 mouse model assessed as reduction in relative kidney size at 5 mg/kg, SC administered from postnatal day 6 and measured on postnatal day 12; assay type: functional, organism-based; conditions: time 7.0 day
[7] = molecular target: T1, E3 ubiquitin-protein ligase RNF126/Serine/threonine-protein kinase TBK1; assay: Molecular glue activity at RNF126/TBK1 in human A549 cells assessed as induction of TBK1 degradation at 1 uM pretreated with MLN4924 for 2 hrs followed by compound addition and measured after 16 hrs by Western blot analysis; assay type: cell-based
Target sequence in this assay (Q9BV68 2-311 partner limits assumed): as the sequence (Q9BV68 2-311 partner limits assumed) above
Target sequence in this assay (Q9UHD2 whole entry): as the sequence (Q9UHD2 whole entry) above

[8] = Cmax in rat at 2 mg/kg, iv measured after 24 hrs by LC-MS/MS analysis; assay type: ADME, organism-based; conditions: in vivo
[9] = molecular target: T1, E3 ubiquitin-protein ligase RNF126/Serine/threonine-protein kinase TBK1; assay: Molecular glue activity at RNF126/TBK1 in human A549 cells assessed as induction of TBK1 degradation incubated for 16 hrs by Western blot analysis; assay type: cell-based
[10] = molecular target: T1, E3 ubiquitin-protein ligase RNF126/Serine/threonine-protein kinase TBK1; assay: Molecular glue activity at RNF126/TBK1 in HEK293T cells assessed as induction of TBK1 degradation at 1 uM pretreated with MLN4924 for 2 hrs followed by compound addition and measured after 16 hrs by Western blot analysis; assay type: cell-based
Target sequence in this assay (Q9BV68 2-311 partner limits assumed): as the sequence (Q9BV68 2-311 partner limits assumed) above
Target sequence in this assay (Q9UHD2 whole entry): as the sequence (Q9UHD2 whole entry) above

[11] = molecular target: T1, E3 ubiquitin-protein ligase RNF126/Serine/threonine-protein kinase TBK1; assay: Molecular glue activity at RNF126/TBK1 in HEK293T cells assessed as induction of TBK1 degradation at 1 uM incubated for 16 hrs by Western blot analysis; assay type: cell-based
Target sequence in this assay (Q9BV68 2-311 partner limits assumed): as the sequence (Q9BV68 2-311 partner limits assumed) above
Target sequence in this assay (Q9UHD2 whole entry): as the sequence (Q9UHD2 whole entry) above

[12] = Half-life in rat at 2 mg/kg, iv measured after 24 hrs by LC-MS/MS analysis; assay type: ADME, organism-based; conditions: in vivo
[13] = Volume of distribution at steady state in rat at 2 mg/kg, iv measured after 24 hrs by LC-MS/MS analysis; assay type: ADME, organism-based; conditions: in vivo, read-out: Vdss
Mus musculus [14] = assay: as §1, with “inhibition of TBK1-mediated activation of inflammatory pathway” for “molecular glue activity at RNF126/TBK1”, “phosphorylated IRF3” for “TBK1”; assay type: functional, organism-based; conditions: time 7.0 day
[15] = molecular target: T1, E3 ubiquitin-protein ligase RNF126/Serine/threonine-protein kinase TBK1; assay: Molecular glue activity at RNF126/TBK1 in human A549 cells assessed as induction of TBK1 degradation by measuring maximal efficacy at 10 to 1000 nM incubated for 16 hrs by Western blot analysis relative to control; assay type: cell-based; conditions: dose 10-1000 nM
Target sequence in this assay (Q9BV68 2-311 partner limits assumed): as the sequence (Q9BV68 2-311 partner limits assumed) above
Target sequence in this assay (Q9UHD2 whole entry): as the sequence (Q9UHD2 whole entry) above

[16] = AUC (0 to infinity) in rat at 2 mg/kg, iv measured after 24 hrs by LC-MS/MS analysis; assay type: ADME, organism-based; conditions: in vivo
[17] = molecular target: T1, E3 ubiquitin-protein ligase RNF126/Serine/threonine-protein kinase TBK1; assay: Molecular glue activity at RNF126/TBK1 in HEK293T cells assessed as induction of TBK1 degradation at 1 uM by Western blot analysis; assay type: cell-based; conditions: time 2-24 hrs
[18] = molecular target: T1, E3 ubiquitin-protein ligase RNF126/Serine/threonine-protein kinase TBK1; assay: Molecular glue activity at RNF126/TBK1 in human A549 cells assessed as induction of TBK1 degradation at 1 uM measured after 6 hrs by Western blot analysis; assay type: cell-based
[19] = molecular target: T1, E3 ubiquitin-protein ligase RNF126/Serine/threonine-protein kinase TBK1; assay: Molecular glue activity at RNF126/TBK1 in HEK293T cells assessed as induction of TBK1 degradation at 1 uM measured after 6 hrs by Western blot analysis; assay type: cell-based
[20] = Tmax in rat at 10 mg/kg, po measured after 24 hrs by LC-MS/MS analysis; assay type: ADME, organism-based; conditions: in vivo
Mus musculus [21] = assay: In vivo molecular glue activity at RNF126/TBK1 in PKD1 knockout ADPKD (Pkd1 flox/flox; Ksp-Cre) C57BL/6 mouse model assessed as decrease in phosphorylated STING level in kidney at 5 mg/kg, SC administered from postnatal day 6 and measured on postnatal day 12 by Western blot analysis; assay type: functional, organism-based; conditions: time 7.0 day
Mus musculus [22] = assay: Anti-inflammatory activity in PKD1 knockout ADPKD (Pkd1 flox/flox; Ksp-Cre) C57BL/6 mouse model assessed as decrease in Ccl2 level in kidney at 5 mg/kg, SC administered from postnatal day 6 and measured on postnatal day 12 by RT-qPCR analysis; assay type: functional, organism-based; conditions: time 7.0 day
[23] = Clearance in rat at 2 mg/kg, iv measured after 24 hrs by LC-MS/MS analysis; assay type: ADME, organism-based; conditions: in vivo
[24] = Half-life in rat at 10 mg/kg, po measured after 24 hrs by LC-MS/MS analysis; assay type: ADME, organism-based; conditions: in vivo
[25] = Cmax in rat at 10 mg/kg, po measured after 24 hrs by LC-MS/MS analysis; assay type: ADME, organism-based; conditions: in vivo
[26] = molecular target: T1, E3 ubiquitin-protein ligase RNF126/Serine/threonine-protein kinase TBK1; assay: Molecular glue activity at RNF126/TBK1 in human A549 cells assessed as induction of TBK1 degradation at 1 uM measured after 24 hrs by Western blot analysis; assay type: cell-based
[27] = molecular target: T1, E3 ubiquitin-protein ligase RNF126/Serine/threonine-protein kinase TBK1; assay: Molecular glue activity at RNF126/TBK1 in HEK293T cells assessed as induction of TBK1 degradation at 1 uM measured after 24 hrs by Western blot analysis; assay type: cell-based
[28] = molecular target: T1, E3 ubiquitin-protein ligase RNF126/Serine/threonine-protein kinase TBK1; assay: Molecular glue activity at RNF126/TBK1 in HEK293T cells assessed as induction of TBK1 degradation at 1 uM pretreated with MG132 for 2 hrs followed by compound addition and measured after 16 hrs by Western blot analysis; assay type: cell-based
[29] = Oral bioavailability in rat at 10 mg/kg measured after 24 hrs by LC-MS/MS analysis; assay type: ADME, organism-based; conditions: in vivo
MDCK = assay: Inhibition of cystogenesis in forskolin-stimulated MDCK cells assessed as reduction in cyst growth at 100 nM by imaging analysis; assay type: functional, cell-based; conditions: Canis lupus familiaris, time 8.0 day
[30] = Tmax in rat at 2 mg/kg, iv measured after 24 hrs by LC-MS/MS analysis; assay type: ADME, organism-based; conditions: in vivo
[31] = molecular target: T1, E3 ubiquitin-protein ligase RNF126/Serine/threonine-protein kinase TBK1; assay: Molecular glue activity at RNF126/TBK1 in HEK293T cells assessed as induction of TBK1 degradation by measuring maximal efficacy at 10 to 1000 nM incubated for 16 hrs by Western blot analysis relative to control; assay type: cell-based; conditions: dose 10-1000 nM
Mus musculus [32] = assay: Anti-inflammatory activity in PKD1 knockout ADPKD (Pkd1 flox/flox; Ksp-Cre) C57BL/6 mouse model assessed as decrease in IFN-beta level in kidney at 5 mg/kg, SC administered from postnatal day 6 and measured on postnatal day 12 by RT-qPCR analysis; assay type: functional, organism-based; conditions: time 7.0 day

Activity [3]: Time-dependent-effect
Activity [5]: Active
Cmax [8]: 1790 nM
Activity [9]: Dose-dependent-effect
DC50 [9]: 360 nM
Activity [11]: Active
half-life [12]: 268 min
Vd [13]: 17.3 L/kg
Emax [15]: 71.9%
AUC(0-inf) [16]: 1.03 µM·h
Activity [17]: Time-dependent-effect
Tmax [20]: 21.6 min
clearance [23]: 44.9 mL/min/kg
half-life [24]: 73.2 min
Cmax [25]: 70 nM
Activity [28]: inactive
bioavailability [29]: 2.77%
Tmax [30]: 4.8 min
Emax [31]: 91.9%
SMILES: COc1ccc(C(=O)/C=C/C(=O)N2CCN(CC3CCN(Cc4cccc(Nc5ncc6ccn(CCCNC(=O)C7CCC7)c6n5)c4)CC3)CC2)cc1
Activity (Mus musculus [1]): Active
Activity (Mus musculus [2]): Active
Activity (Mus musculus [4]): Active
inhibition (Mus musculus [6]): Active
Activity [7]: Active; Degradation In Independent Of Crl-Related Pathway
Activity [10]: Active; Degradation In Independent Of Crl-Related Pathway
inhibition (Mus musculus [14]): Active
Activity [18]: Active; Significant Reduction In Tbk1 Level Observed
Activity [19]: Active; Significant Reduction In Tbk1 Level Observed
Activity (Mus musculus [21]): Active
Activity (Mus musculus [22]): Active
Activity [26]: Active; Maximal Tbk1 Degradation Observed
Activity [27]: Active; Maximal Tbk1 Degradation Observed
inhibition (MDCK): Time-dependent-effect; Effect Observed Starting On Day 6
Activity (Mus musculus [32]): Active
